Series [1] concerns the target T1, Voltage-gated L-type calcium channel (Homo sapiens, UniProt Q13936+Q13698+Q01668+O60840). Nature of the series: Evaluated for the free energies of binding (delta G) (in the resting state (rs) of voltage-gated L-type [Ca2+] channel (VGCCs)). Format: protein assay.
The target of series [2] is T1, Voltage-gated L-type calcium channel. As to the kind of experiment: Free energy of binding (delta G) for inactivated state (is) of voltage-gated L-type [Ca2+] channel(VGCCs). Format: protein assay.
The target is the same in series [3]. As to the kind of experiment: Difference in free energies of binding (delta G) in the Resting state (rs) and inactivated state (is) of voltage-gated L-type [Ca2+] channel(VGCCs). Format: protein assay.
For series [4] the target is unchanged. Nature of the series: Free energies of binding(delta G)in inactivated state (is) of voltage-gated L-type [Ca2+] channel(VGCCs). Format: protein assay.
Series [5] has the same target. Nature of the series: Free energies of binding (delta G) in the Resting state (rs) of voltage-gated L-type [Ca2+] channel(VGCCs). The format is protein assay.

These results are taken from ChEMBL document CHEMBL1132242, “Stereoselective characterization of the 1,4-dihydropyridine binding site at L-type calcium channels in the resting state and the opened/inactivated state” (J Med Chem, 1999).

Several values for one entry are separate records, joined by “and”; a condition that tells them apart may be missing. Equal entries are not always repeated.

For the compound `COC(=O)C1=C(C)N=C(C)/C(=C(\O)OC)C1c1c(F)c(F)c(F)c(F)c1F` (stereo not drawn), the “Delta Gsolv” value is -9.442 kcal/mol. Further, in series [1], the Binding energy is -14.145 kcal/M.

Consider `COC(=O)C1=C(C)N=C(C)/C(=C(\O)OC)C1c1ccc(Cl)cc1` (stereo in doubt; form 2), for which the “Delta Gsolv” value is -8.79 kcal/mol. For the same compound, the Binding energy in series [1] was -7.666 kcal/M.

Regarding `COC(=O)C1=C(C)N=C(C)/C(=C(\O)OC)C1c1ccccc1C` (stereo not drawn), the “Delta Gsolv” value was -7.993 kcal/mol. Also, in series [1], the Binding energy was -11.88 kcal/M.

With `COC(=O)C1=C(C)N=C(C)/C(=C(\O)OC)C1c1cccc(OC)c1` (stereo in doubt; form 1), the “Delta Gsolv” value is -9.847 kcal/mol. Moreover, in series [1], the Binding energy is -9.916 kcal/M.

Regarding `CC1=CC(c2ccccc2OC(F)F)C([N+](=O)[O-])=C(C)N1` (stereo in doubt; form 1), the “Delta Gsolv” value was -11.269 kcal/mol. Moreover, in series [2], the Binding energy is -7.783 kcal/M. For the same compound, in series [1], the Binding energy was -7.422 kcal/M.

For `CC1=C([N+](=O)[O-])C(c2ccccc2OC(F)F)C([N+](=O)[O-])=C(C)N1`, the “Delta Gsolv” value was -16.994 kcal/mol. Also, in series [2], the Binding energy is -8.66 kcal/M. Moreover, the Binding energy in series [1] was -7.82 kcal/M.

Regarding `CC1=C([N+](=O)[O-])C(c2ccccc2C(F)(F)F)C([N+](=O)[O-])=C(C)N1`, the “Delta Gsolv” value is -17.275 kcal/mol. Moreover, in series [2], the Binding energy is -9.11 kcal/M. Further, the Binding energy in series [3] was -0.85 kcal/M. Moreover, the Binding energy in series [1] is -8.256 kcal/M.

For `COC(=O)C1=C(C)N=C(C)/C(=C(\O)OC)C1c1ccccc1OC` (stereo not drawn), the “Delta Gsolv” value is -10.468 kcal/mol. For the same compound, in series [1], the Binding energy is -10.735 kcal/M.

For `COC(=O)C1=C(C)N=C(C)/C(=C(\O)OC)C1c1cccc(C#N)c1` (stereo in doubt; form 2), the “Delta Gsolv” value is -10.65 kcal/mol. For the same compound, the Binding energy in series [1] is -11.84 kcal/M.

`COC(=O)C1=C(C)N=C(C)/C(=C(\O)OC)C1c1cccc(F)c1` (stereo not drawn): the “Delta Gsolv” value is -9.56 kcal/mol. For the same compound, the Binding energy in series [1] is -11.58 kcal/M.

Regarding `COC(=O)C1=C(C)NC(C)=C([N+](=O)[O-])C1c1ccccc1OC(F)F` (stereo not drawn), the “Delta Gsolv” value is -14.696 kcal/mol. For the same compound, the Binding energy in series [2] was -10.474 kcal/M. Besides, the Binding energy in series [1] is -9.571 kcal/M.

For the compound `COC(=O)C1=C(C)N=C(C)/C(=C(\O)OC)C1c1ccc(F)cc1` (stereo not drawn), the “Delta Gsolv” value is -9.427 kcal/mol. In addition, in series [1], the Binding energy is -10.175 kcal/M.

As for `COC(=O)C1=C(C)N=C(C)/C(=C(\O)OC)C1c1cccc(C)c1` (stereo not drawn), the “Delta Gsolv” value is -8.407 kcal/mol. Besides, the Binding energy in series [1] is -9.93 kcal/M.

In the case of `CO/C(O)=C1\C(C)=NC(C)=C([N+](=O)[O-])C1c1ccccc1OC(F)F` (stereo not drawn), the “Delta Gsolv” value is -14.543 kcal/mol. Moreover, in series [2], the Binding energy is -10.564 kcal/M. Moreover, the Binding energy in series [1] was -9.26 kcal/M.

Take `COC(=O)C1=C(C)N=C(C)/C(=C(/O)OC)C1c1cccc(Cl)c1` (stereo not drawn): the “Delta Gsolv” value was -8.94 kcal/mol. In addition, the Binding energy in series [1] was -12.685 kcal/M.

As for `CC1=CC(c2ccccc2C(F)(F)F)C([N+](=O)[O-])=C(C)N1` (stereo in doubt; form 1), the “Delta Gsolv” value is -10.313 kcal/mol. The Binding energy in series [3] is -0.66 kcal/M. Moreover, the Binding energy in series [1] was -6.967 kcal/M. Further, the Binding energy in series [4] was -7.634 kcal/M.

Turning to `COC(=O)C1=C(C)N=C(C)/C(=C(\O)OC)C1c1ccccc1F` (stereo not drawn), the “Delta Gsolv” value is -9.804 kcal/mol. Also, in series [1], the Binding energy was -11.512 kcal/M.

Turning to `COC(=O)C1=C(C)NC(C)=C(C(=O)OC)C1c1ccccc1`, the “Delta Gsolv” value is -8.706 kcal/mol and -9.458 kcal/mol. In addition, the Binding energy in series [2] is -10.387 kcal/M. The Binding energy in series [1] is -8.58 kcal/M and -10.707 kcal/M.

For `COC(=O)C1=C(C)N=C(C)/C(=C(\O)OC)C1c1ccccc1Cl` (stereo not drawn), the “Delta Gsolv” value is -9.26 kcal/mol. The Binding energy in series [1] was -13.34 kcal/M.

Consider `COC(=O)C1=C(C)NC(C)=C([N+](=O)[O-])C1c1ccccc1C(F)(F)F` (stereo in doubt; form 1), for which the “Delta Gsolv” value is -13.929 kcal/mol. Besides, in series [2], the Binding energy was -10.296 kcal/M. In series [3], the Binding energy was -1.5 kcal/M. Also, in series [1], the Binding energy is -8.8 kcal/M.

`COC(=O)C1=C(C)N=C(C)/C(=C(\O)OC)C1c1ccc(C)cc1` (stereo not drawn): the “Delta Gsolv” value is -8.19 kcal/mol. The Binding energy in series [1] was -9.79 kcal/M.

On to `COC(=O)C1=C(C)NC(C)=C(C(=O)OC)C1c1ccccc1[N+](=O)[O-]` [NIFEDIPINE], for which the “Delta Gsolv” value is -14.117 kcal/mol and -14.198 kcal/mol. Besides, the Binding energy in series [2] was -13.184 kcal/M. Besides, the Binding energy in series [5] was -10.502 kcal/M. Further, the Binding energy in series [1] is -12.385 kcal/M.

As to `COC(=O)C1=C(C)N=C(C)/C(=C(\O)OC)C1c1ccccc1C#N` (stereo not drawn), the “Delta Gsolv” value is -9.74 kcal/mol. The Binding energy in series [1] is -12.522 kcal/M.

Consider `COC(=O)C1=C(C)N=C(C)/C(=C(\O)OC)C1c1ccc(Cl)cc1` (stereo in doubt; form 1), for which the “Delta Gsolv” value was -9.2 kcal/mol. Moreover, the Binding energy in series [2] is -8.964 kcal/M. Also, the Binding energy in series [1] was -8.209 kcal/M.

Consider `CC1=CC(c2ccccc2OC(F)F)C([N+](=O)[O-])=C(C)N1` (stereo in doubt; form 2), for which the “Delta Gsolv” value was -10.096 kcal/mol. For the same compound, the Binding energy in series [2] is -8.28 kcal/M. The Binding energy in series [1] was -7.86 kcal/M.

As to `COC(=O)C1=C(C)N=C(C)/C(=C(\O)OC)C1c1cccc(OC)c1` (stereo in doubt; form 2), the “Delta Gsolv” value is -9.756 kcal/mol. Moreover, in series [2], the Binding energy is -8.461 kcal/M. Further, the Binding energy in series [1] is -7.819 kcal/M.

For the compound `COC(=O)C1=C(C)N=C(C)/C(=C(\O)OC)C1c1ccccc1Br` (stereo not drawn), the “Delta Gsolv” value is -9.256 kcal/mol. For the same compound, the Binding energy in series [1] was -14.308 kcal/M.

Consider `COC(=O)C1=C(C)NC(C)=C([N+](=O)[O-])C1c1ccccc1C(F)(F)F` (stereo in doubt; form 2), for which the “Delta Gsolv” value is -14.15 kcal/mol. The Binding energy in series [2] was -10.641 kcal/M. Moreover, the Binding energy in series [3] is -0.94 kcal/M. For the same compound, the Binding energy in series [1] is -9.7 kcal/M.

With `CC1=CC(c2ccccc2C(F)(F)F)C([N+](=O)[O-])=C(C)N1` (stereo in doubt; form 2), the “Delta Gsolv” value was -10.33 kcal/mol. Moreover, the Binding energy in series [2] was -7.74 kcal/M. Besides, the Binding energy in series [3] was -0.38 kcal/M. Moreover, the Binding energy in series [1] is -7.36 kcal/mol.

In the case of `COC(=O)C1=C(C)N=C(C)/C(=C(\O)OC)C1c1ccccc1I` (stereo not drawn), the “Delta Gsolv” value was -9.18 kcal/mol. Moreover, in series [1], the Binding energy was -14.731 kcal/M.

As to `COC(=O)C1=C(C)N=C(C)/C(=C(\O)OC)C1c1cccc(C#N)c1` (stereo in doubt; form 1), the “Delta Gsolv” value was -10.743 kcal/mol. Further, the Binding energy in series [2] was -12.108 kcal/M. In addition, the Binding energy in series [1] is -9.71 kcal/M.
